Active and inactive are the calls of the source. The calls are words filed in the database; no cut-off is given here.
Tests used:
[1] = system: MOLM-13; assay: Induction of apoptosis in human MOLM-13 cells assessed as early apoptotic cells at 1 uM incubated for 12 hrs by annexin-V and propidium iodide staining based flow cytometry analysis (reference value: 5.40%); assay type: functional
[2] = Oral bioavailability in Sprague Dawley rat at 10 mg/kg measured after 24 hrs; assay type: ADME, organism-based; details: in vivo
[3] = system: MOLM-13; assay: Antitumor activity against human MOLM-13 cells xenografted in NOD/SCID mouse assessed as tumor growth inhibition at 5 mg/kg, ip daily for 2 weeks; assay type: functional; details: MOLM-13, ip, 336 h, read-out: TGI
[4] = system: K562; assay: Downregulation of c-myc levels in human K562 cells at 1 to 2 uM incubated for 24 hrs by western blot analysis; assay type: functional, cell-based; details: dose 1-2 µM
[5] = system: MOLM-13; assay: Downregulation of c-myc levels in human MOLM-13 cells at 1 to 2 uM incubated for 12 hrs by western blot analysis; assay type: functional, cell-based; details: dose 1-2 µM
[6] = system: HL-60; assay: Antiproliferative activity against human HL-60 cells assessed as reduction of cell viability incubated for 72 hrs by trypan blue staining based cell counting analysis; assay type: functional
[7] = Metabolic stability in human liver microsomes assessed as half life preincubated for 10 mins followed by NADPH addition and further incubated upto 60 mins by LC-MS/MS analysis; assay type: ADME, Microsome; details: time <=70 min
[8] = biological target: MAP kinase-interacting serine/threonine-protein kinase 2 (Homo sapiens, UniProt Q9HBH9); assay: Inhibition of wild type human partial length MKN2 (G63 to S388 residues) expressed in mammalian expression system by HTRF method
[9] = Toxicity in NOD/SCID mouse xenografted with human MOLM-13 cells assessed as abnormal changes in lung at 5 to 10 mg/kg, ip daily for 2 weeks by hematoxylin-eosin staining based histological analysis; assay type: organism-based; details: in vivo, 336 h, dose 5-10 mg/kg
[10] = system: MOLM-13; assay: Antitumor activity against human MOLM-13 cells xenografted in NOD/SCID mouse assessed as decrease in BAD phosphorylation at 10 mg/kg, ip daily for 2 weeks by western blot analysis; assay type: functional, organism-based
[11] = biological target: Receptor tyrosine-protein kinase erbB-2 (Homo sapiens, UniProt P04626); assay: Inhibition of wild-type human partial length ERBB2 (K646 to V1225 residues) expressed in mammalian expression system at 1 uM by Kinomescan method relative to control
[12] = system: MOLM-13; assay: Antitumor activity against human MOLM-13 cells xenografted in NOD/SCID mouse assessed as decrease in eIF4E phosphorylation at 10 mg/kg, ip daily for 2 weeks by western blot analysis; assay type: functional, organism-based
[13] = Toxicity in NOD/SCID mouse xenografted with human MOLM-13 cells assessed as abnormal changes in kidney at 5 to 10 mg/kg, ip daily for 2 weeks by hematoxylin-eosin staining based histological analysis; assay type: organism-based; details: in vivo, 336 h, dose 5-10 mg/kg
[14] = system: MOLM-13; assay: Antitumor activity against human MOLM-13 cells xenografted in NOD/SCID mouse assessed as decrease in 4EBP1 phosphorylation at 5 to 10 mg/kg, ip daily for 2 weeks by western blot analysis; assay type: functional, organism-based; details: dose 5-10 mg/kg
[15] = biological target: T1, MAP kinase-interacting serine/threonine-protein kinase 1 (Homo sapiens, UniProt Q9BUB5); assay: Inhibition of MKN1 (unknown origin) in presence of ATP by HTRF assay
[16] = system: MOLM-13; assay: Induction of apoptosis in human MOLM-13 cells assessed as live cells at 2 uM incubated for 12 hrs by annexin-V and propidium iodide staining based flow cytometry analysis (reference value: 91.49%); assay type: functional
[17] = system: K562; assay: Antiproliferative activity against human K562 cells assessed as reduction of cell viability incubated for 72 hrs by trypan blue staining based cell counting analysis; assay type: functional
[18] = system: MOLM-13; assay: Induction of apoptosis in human MOLM-13 cells assessed as early apoptotic cells at 2 uM incubated for 12 hrs by annexin-V and propidium iodide staining based flow cytometry analysis (reference value: 5.40%); assay type: functional
[19] = system: MOLM-13; assay: Induction of apoptosis in human MOLM-13 cells assessed as necrotic cells at 1 uM incubated for 12 hrs by annexin-V and propidium iodide staining based flow cytometry analysis (reference value: 0.06%); assay type: functional
[20] = biological target: Epidermal growth factor receptor (Homo sapiens, UniProt P00533, T790M); assay: Inhibition of recombinant human EGFR T790M mutant (696 to end residues) using GGMEDIYFEFMGG as substrate after 40 mins in presence of [gamma-33ATP] by radiometric scintillation counting analysis
[21] = system: MOLM-13; assay: Downregulation of mcl-1 levels in human MOLM-13 cells at 1 to 2 uM incubated for 12 hrs by western blot analysis; assay type: functional, cell-based; details: dose 1-2 µM
[22] = biological target: MAP kinase-interacting serine/threonine-protein kinase 1/2 (Homo sapiens) (UniProt Q9HBH9+Q9BUB5); assay: Inhibition of MNK1/MNK2 in human MOLM-13 cells assessed as reduction in eIF4E phosphorylation at 1 to 2 uM incubated for 12 hrs by western blot analysis; assay type: cell-based; details: dose 1-2 µM
[23] = system: MOLM-13; assay: Induction of apoptosis in human MOLM-13 cells assessed as necrotic cells at 2 uM incubated for 12 hrs by annexin-V and propidium iodide staining based flow cytometry analysis (reference value: 0.06%); assay type: functional
[24] = Toxicity in NOD/SCID mouse xenografted with human MOLM-13 cells assessed as decrease in body weight at 5 to 10 mg/kg, ip daily for 2 weeks; assay type: organism-based; details: in vivo, 336 h, dose 5-10 mg/kg
[25] = AUC (0 to t) in Sprague Dawley rat at 2 mg/kg, iv measured after 24 hrs; assay type: ADME, organism-based; set-up: route intravenous, time 24 hrs, dose 2 mg/kg; details: in vivo
[26] = AUC (0 to infinity) in Sprague Dawley rat at 10 mg/kg, ip measured after 24 hrs; assay type: ADME, organism-based; set-up: route intraperitoneal, dose 10 mg/kg, time 24 hrs; details: in vivo
[27] = Half life in Sprague Dawley rat at 10 mg/kg, ip measured after 24 hrs; assay type: ADME, organism-based; details: in vivo
[28] = system: MOLM-13; assay: Induction of apoptosis in human MOLM-13 cells assessed as late apoptotic cells at 2 uM incubated for 12 hrs by annexin-V and propidium iodide staining based flow cytometry analysis (reference value: 3.03%); assay type: functional
[29] = Toxicity in NOD/SCID mouse xenografted with human MOLM-13 cells assessed as abnormal changes in heart at 5 to 10 mg/kg, ip daily for 2 weeks by hematoxylin-eosin staining based histological analysis; assay type: organism-based; details: in vivo, 336 h, dose 5-10 mg/kg
[30] = Toxicity in NOD/SCID mouse xenografted with human MOLM-13 cells assessed as abnormal changes in liver at 5 to 10 mg/kg, ip daily for 2 weeks by hematoxylin-eosin staining based histological analysis; assay type: organism-based; details: in vivo, 336 h, dose 5-10 mg/kg
[31] = biological target: Serine/threonine-protein kinase pim-1 (Homo sapiens, UniProt P11309); assay: Inhibition of wild-type human partial length PIM1 (A15 to K313 residues) expressed in bacterial expression system at 1 uM by Kinomescan method relative to control
[32] = system: K562; assay: Downregulation of mcl-1 levels in human K562 cells at 1 to 2 uM incubated for 24 hrs by western blot analysis; assay type: functional, cell-based; details: dose 1-2 µM
[33] = Bioavailability in Sprague Dawley rat at 10 mg/kg, ip measured after 24 hrs; assay type: ADME, organism-based; details: in vivo
[34] = biological target: T1, MAP kinase-interacting serine/threonine-protein kinase 1; assay: Inhibition of MKN1 (unknown origin) at 1 uM in presence of ATP by HTRF assay
[35] = AUC (0 to t) in Sprague Dawley rat at 10 mg/kg, ip measured after 24 hrs; assay type: ADME, organism-based; set-up: route intraperitoneal, time 24 hrs, dose 10 mg/kg; details: in vivo
[36] = Tmax in Sprague Dawley rat at 10 mg/kg, po measured after 24 hrs; assay type: ADME, organism-based; details: in vivo

bioavailability [2]: 35.5% | GI50 [6]: 1.5 µM | half-life [7]: 3.4 h | IC50 [8]: 0.007 µM | inhibition [11]: 60% | IC50 [15]: 0.001 µM | GI50 [17]: 2.19 µM | IC50 [20]: > 10 µM | inhibition [22]: Active | AUC(0-t) at 24 h [25]: 1610 ng·h/mL | AUC(0-inf) [26]: 1680 ng·h/mL | half-life [27]: 4.4 h | inhibition [31]: 96% | bioavailability [33]: 20.6% | inhibition [34]: 97% | AUC(0-t) at 24 h [35]: 1660 ng·h/mL | Tmax [36]: 8 h
Compound: CC(C)Oc1cc(F)ccc1Nc1ncnc2ccc(-c3ccc(C(=O)N4CCNCC4)cc3)nc12
Activity [1]: 6.83% | inhibition in vivo at 5 mg/kg [3]: 41.2% | Activity [4]: Active | Activity [5]: Active | Activity [9]: Non-Toxic | Activity [10]: Active | Activity [12]: Active | Activity [13]: Non-Toxic | Activity [14]: Active | Activity [16]: 61.5% | Activity [18]: 29.57% | Activity [19]: 0.11% | Activity [21]: Active | Activity [23]: 0.73% | Activity [24]: Non-Toxic | Activity [28]: 8.2% | Activity [29]: Non-Toxic | Activity [30]: Non-Toxic | Activity [32]: Active

Source: ChEMBL document CHEMBL4825757, “Optimization of 4,6-Disubstituted Pyrido[3,2-d]pyrimidines as Dual MNK/PIM Inhibitors to Inhibit Leukemia Cell Growth” (J Med Chem, 2021)
